The results in this text go back to PubChem BioAssay AID624344 (Sanford-Burnham Center for Chemical Genomics, 2012).

Assay [1] is described as follows: inhibitors of PAF-induced NFkB signaling in CF airway cells, dose response, cell-based, uHTS hits, panel, cytotoxicity readout (AID 624344). Particulars: CF bronchial epithelial cells, PAF-induced NFkB reporter inhibition; with PAF, mean of runs.
The subject of another assay is Cytotoxicity. The assay is described as above. As to conditions: CF bronchial epithelial cells, mean of runs.

Active and inactive are the calls of the source. The rule behind the calls is not given here.

In general, IC50 refers to the concentration that gives 50% inhibition. Turning to `Cc1cnc(C=O)c2cccc([N+](=O)[O-])c12`, the half-maximal inhibitory concentration (IC50) is 3.35 µM in assay [1] and 60.6 µM (inactive) in the assay with Cytotoxicity.
With `O=S(=O)(c1cccc2cnccc12)N1CCCNCC1`, the IC50 in assay [1] is 4.07 µM; with Cytotoxicity, 8.16 µM.
As for `CC(C)C[C@H]1CNC(=S)N1C[C@H]1CCCN1C[C@H](Cc1ccc(O)cc1)N1C[C@H](Cc2ccc(O)cc2)N(CC2CCCCC2)C1=S`, in assay [1], the IC50 entry is “inactive”. In the assay on Cytotoxicity, the IC50 was 51.2 µM (inactive).
`COc1ccc(-n2ncc3c(N4CCN(Cc5ccccc5)CC4)ncnc32)cc1`: the IC50 is 3.85 µM in assay [1] and 6.95 µM with Cytotoxicity.
As for `COc1cc(NC(=O)c2csc(-c3ccncc3)n2)cc(C(=O)Nc2cccc(C(F)(F)F)c2)c1`, the figures for the IC50 (in assay [1]; in the assay on Cytotoxicity) were 4.32 µM and 46 µM, respectively.
Regarding `CN(C)C(=O)c1cccc(-c2cnc3sc(NCc4ccc5c(c4)OCO5)nn23)c1`, the IC50 was 1.69 µM in assay [1] and 46.5 µM in the assay on Cytotoxicity.
For `COc1cc(NC(=O)Cn2ncc(Cl)c(Cl)c2=O)c(C)cc1[N+](=O)[O-]` the same measures were 3.31 µM and 3.15 µM.
For `CCCCCc1cc(O)c2c(C)cc(=O)oc2c1` the same measures were 4.83 µM and 7.62 µM.
Taken in the same sequence, the figures for `COc1cc(C2c3cc4c(cc3CC3COC(=O)C32)OCO4)cc(OC)c1O` (centres undefined) were > 79 µM (inactive) and > 79 µM (inactive).
With `Cc1ccc2c(c1)C(=O)C(=O)N2Cc1ccc(C(F)(F)F)cc1`, the IC50 result in assay [1] was “inactive”. In addition, in the assay on Cytotoxicity, the IC50 is > 79 µM (inactive).
`Cc1nn(-c2ccccc2)c(N2CCCC2)c1/C=N/NC(=O)c1cc(-c2ccccc2)nc2ccccc12`: the values for the IC50 (in assay [1]; in the assay with Cytotoxicity) were 5.62 µM and 58.7 µM (inactive), respectively.
For `CCOc1ccccc1N1CCN(C(=O)c2cc(-c3cc(OC)ccc3OC)nc3ccccc23)CC1` the same measures were 4.12 µM and 12 µM.
`C[C@@H]1CC=C[C@H]2[C@H]1C(=O)N(Cc1ccccc1)[C@H]2c1ccc2ccccc2c1Br`: the IC50 was 5.04 µM in assay [1] and 12.9 µM in the assay with Cytotoxicity.
Turning to `COc1ccc(-n2c(C)cc3cc(OC(C)=O)ccc32)cc1`, the IC50 in assay [1] was 9.18 µM; in the assay on Cytotoxicity, > 79 µM (inactive).
For the compound `CN(Cc1ccccc1)c1ncnc(N)c1[N+](=O)[O-]`, the IC50 in assay [1] is 3.49 µM; in the assay with Cytotoxicity, 54.8 µM (inactive).
For `CN(Cc1ccco1)c1ncnc2ccc(-c3ccoc3)cc12` the same measures were 8.08 µM and 50.9 µM (inactive).
Taken in the same sequence, the figures for `N#Cc1c(-c2ccc(Cl)cc2)n(O)c2ccccc12` were 2.85 µM and 3.98 µM.
Take `CC(C)c1ccccc1NC(=O)COC(=O)c1c2c(nc3ccccc13)CCN(Cc1ccccc1)C2`: the figures for the IC50 (in assay [1]; with Cytotoxicity) were 6.98 µM and 21.2 µM, respectively.
For the compound `C=C1C(=O)C23C(O)C1CCC2C12COC3(O)C(O)C1C(C)(C)CCC2O` (centres undefined), the IC50 was 3.69 µM in assay [1] and 5.5 µM in the assay on Cytotoxicity.
With `O=C1N(c2ccccc2C(F)(F)F)O[C@@]1(c1ccccc1)C1CCCCC1`, the half-inhibitory concentration (IC50) in assay [1] was 8.4 µM; in the assay on Cytotoxicity, > 79 µM (inactive).
In the case of `C=C(C)COc1ccc(-c2[nH]ncc2-c2ccc(OC)cc2)c(O)c1`, the values for the half-maximal inhibitory concentration (IC50) (in assay [1]; in the assay with Cytotoxicity) were 5.07 µM and 24 µM, respectively.
For `Cc1cccc(NC(=O)c2cc(-c3ccc(C)s3)nc3ccccc23)n1` the same measures were 5.26 µM and 42.4 µM.
As for `Cn1nnnc1Sc1ncnc2scc(-c3ccc[nH]3)c12`, the IC50 is 14.7 µM in assay [1] and 6.95 µM in the assay on Cytotoxicity.
Taken in the same sequence, the figures for `COc1ccc(-c2cn[nH]c2-c2ccc(OC)cc2O)cc1` were 2.92 µM and 46.4 µM.
Consider `Cc1cccc(NC(=O)c2nc(S(=O)(=O)Cc3ccccc3)ncc2Cl)c1`, for which the IC50 in assay [1] is 2.51 µM; in the assay on Cytotoxicity it was 3.39 µM.
Take `CC1=C(C(=O)OCc2ccc3c(c2)OCO3)C(c2cccc([N+](=O)[O-])c2)NC(=O)N1` (centres undefined): the half-inhibitory concentration (IC50) is 2.71 µM in assay [1] and > 79 µM (inactive) in the assay on Cytotoxicity.
Consider `CCOC(=O)c1c(-c2ccc(C)cc2)csc1NC(=O)c1ccc(N2C(=O)CCC2=O)cc1`, for which the IC50 entry in assay [1] is “inactive”. The IC50 with Cytotoxicity is 61 µM (inactive).
Turning to `CN(C)c1ccc(C(C(=O)NC2CCCCC2)N(Cc2ccco2)C(=O)c2snc(C(N)=O)c2N)cc1` (centres undefined), the IC50 was 4.04 µM in assay [1] and 9.1 µM with Cytotoxicity.
As for `COc1ccc(S(=O)(=O)c2c(O)c3ccc(C(=O)Nc4ccccc4Cl)cc3[nH]c2=O)cc1`, the IC50 in assay [1] was 7.32 µM; in the assay on Cytotoxicity, 37.8 µM.
Regarding `COc1ccc2nc(Nc3nc(CSc4nc5ccccc5[nH]4)cc(=O)[nH]3)nc(C)c2c1`, the figures for the IC50 (in assay [1]; in the assay on Cytotoxicity) were 5.97 µM and 44 µM, respectively.
In the case of `Cc1ccc(S(=O)(=O)Nc2cccc3ncccc23)s1`, the IC50 in assay [1] is 1.48 µM; with Cytotoxicity, > 79 µM (inactive).
Taken in the same sequence, the figures for `CC(=O)Nc1ccc(NC(=O)COC(=O)c2c3c(nc4ccccc24)CCN(Cc2ccccc2)C3)cc1` were 5.27 µM and 4.16 µM.
Regarding `COc1ccc(-c2cnc(N)nc2-c2ccc(OC)cc2O)cc1`, the values for the IC50 (in assay [1]; with Cytotoxicity) were 4.66 µM and 36.5 µM, respectively.
Turning to `Oc1ccc(Cl)cc1Cc1cc(Cl)ccc1O`, the IC50 in assay [1] was 6.19 µM; in the assay on Cytotoxicity it was 25.2 µM.
For `CCOc1ccc(NCc2cc3c(C(C)(C)C)nn(-c4ccccc4)c3[nH]c2=O)cc1`, the results for the half-inhibitory concentration (IC50) (in assay [1]; with Cytotoxicity) were 7.26 µM and 27.4 µM, respectively.
As for `COc1ccccc1-c1cc(NC=O)c2ncc(-c3ccc(F)cc3)n2c1`, the IC50 was 4.08 µM in assay [1] and 46.1 µM in the assay with Cytotoxicity.
On to `O=C1CC(=O)OC(c2ccc([N+](=O)[O-])cc2)O1`, for which the 50% inhibitory concentration (IC50) in assay [1] is 2.59 µM; in the assay on Cytotoxicity it was 1.79 µM.
`CCOc1ccc(-n2c(C)c(C(C)=O)c3cc(OC(C)=O)ccc32)cc1`: the 50% inhibitory concentration (IC50) in assay [1] is 0.925 µM; in the assay on Cytotoxicity, 44.5 µM.
For `Cc1ccc(S(=O)(=O)Nc2nc3ccccc3nc2Nc2cccc(S(=O)(=O)N3CCCC3)c2)cc1`, the IC50 in assay [1] was 3.57 µM; in the assay on Cytotoxicity, 41.3 µM.
For the compound `Cc1cccc(C(=O)N2[C@@H](C(C)C)COc3cc(Br)ccc3S2(=O)=O)c1`, the IC50 in assay [1] is 11.1 µM; with Cytotoxicity, 37.8 µM.
As for `O=C(c1nnsc1S(=O)(=O)c1ccc(Cl)cc1)N1CCOCC1`, the figures for the half-inhibitory concentration (IC50) (in assay [1]; in the assay with Cytotoxicity) were 3.85 µM and 9.67 µM, respectively.
For `COc1ccc(-c2cn[nH]c2-c2ccc(OC)cc2)cc1` the same measures were 2.53 µM and 63.5 µM (inactive).
For `CC(=O)c1c(C)n(-c2ccc(C)cc2C)c2ccc(O)cc12` the same measures were 12.7 µM and > 79 µM (inactive).
For `CCCC1/C(=N/O)CC(c2ccccc2)NC1c1ccccc1` (centres undefined) the same measures were 5.52 µM and 6.23 µM.
Consider `O=C(CCS(=O)(=O)c1ccccc1)N(CCCN1CCOCC1)c1nc2c(F)cccc2s1`, for which the figures for the concentration for half-maximal inhibition (IC50) (in assay [1]; in the assay on Cytotoxicity) were 7.63 µM and 18.1 µM, respectively.
`O=C(Nc1ccncc1)c1c(Cl)cccc1Cl`: the IC50 in assay [1] was 5.03 µM; with Cytotoxicity, 38.9 µM.
Consider `CCCCCOC(=O)c1[nH]c2c(c1C)C(=O)CC(c1ccco1)C2` (centres undefined), for which the values for the IC50 (in assay [1]; with Cytotoxicity) were 10.8 µM and > 79 µM (inactive), respectively.
As to `Cc1cc(C)nc(Sc2ncnc(N)c2[N+](=O)[O-])n1`, the values for the IC50 (in assay [1]; in the assay with Cytotoxicity) were 5.09 µM and 13.5 µM, respectively.
With `CN1CCC(OC(=O)c2cc3cc(Cl)cc(Cl)c3oc2=O)CC1`, the IC50 in assay [1] is 1.64 µM; in the assay with Cytotoxicity, 44.5 µM.
In the case of `O=C(Oc1ccc(F)cc1C(=O)/C=C/c1cccs1)c1cccc([N+](=O)[O-])c1`, the IC50 entry in assay [1] was “inactive”. Also, in the assay with Cytotoxicity, the IC50 is > 79 µM (inactive).
As to `COc1cncc(-c2cnc3sc(NCCc4ccccn4)nn23)c1`, the half-maximal inhibitory concentration (IC50) in assay [1] is 1.53 µM; in the assay on Cytotoxicity, > 79 µM (inactive).
Turning to `CC(=O)OC1(C)CC(C)C(=O)C(C(O)CC2CC(=O)NC(=O)C2)C1` (centres undefined), the results for the IC50 (in assay [1]; with Cytotoxicity) were under 0.15 µM and 0.177 µM, respectively.
As to `CCN1CCN(Cc2ccc(NC(=O)c3ccc(C)c(NC(=O)c4cccc5[nH]ccc45)c3)cc2C(F)(F)F)CC1`, the IC50 in assay [1] was 7.33 µM; in the assay on Cytotoxicity, 47.7 µM.
For `NC(=O)c1cc2ccc(O)cc2oc1=Nc1ccccc1`, the IC50 in assay [1] is 1.41 µM; in the assay with Cytotoxicity, 44.8 µM.
For the compound `COc1ccc(-n2nnnc2C(CCc2ccccc2)N2CCC(n3c(=O)[nH]c4ccccc43)CC2)cc1` (centres undefined), the 50% inhibitory concentration (IC50) in assay [1] was 6.25 µM; in the assay on Cytotoxicity it was 11.1 µM.
In the case of `CC(C)CN=C(NS(=O)(=O)c1ccccc1)C(Cl)(Cl)Cl`, the IC50 in assay [1] was 2.93 µM; in the assay with Cytotoxicity it was 44.5 µM.
Taken in the same sequence, the figures for `CCC(C)Oc1cc(-c2ccnc(Nc3cccc(Cl)c3)n2)ccn1` (centres undefined) were 3.28 µM and 5.62 µM.
Take `O=C(c1ccc(O)c(Br)c1)c1cc(Br)ccc1O`: the figures for the IC50 (in assay [1]; with Cytotoxicity) were 4.08 µM and 16.4 µM, respectively.
In the case of `Cc1nnc(SCC(=O)N2CCC(c3noc4ccc(F)cc34)CC2)s1`, the IC50 was 1.18 µM in assay [1] and > 79 µM (inactive) in the assay with Cytotoxicity.
For `CCOc1ccc(-n2c(C)c(C(C)=O)c3cc(O)ccc32)cc1`, the IC50 in assay [1] is 1.87 µM; in the assay on Cytotoxicity, > 79 µM (inactive).
`Cc1ccc(NC(=O)c2nc[nH]c2C(=O)NCCCNC(=O)c2[nH]cnc2C(=O)Nc2ccc(C)cc2)cc1`: the figures for the half-inhibitory concentration (IC50) (in assay [1]; in the assay with Cytotoxicity) were 3.82 µM and 14 µM, respectively.
Take `COc1ccc(-c2cnc3c(NC=O)cc(-c4ccccc4OC)cn23)cc1OC`: the figures for the 50% inhibitory concentration (IC50) (in assay [1]; in the assay on Cytotoxicity) were 6.5 µM and 13.7 µM, respectively.
Regarding `Cc1ccc(S(=O)(=O)n2cc(-c3ccccc3)c3ccccc32)cc1`, the figures for the half-inhibitory concentration (IC50) (in assay [1]; in the assay on Cytotoxicity) were 5.53 µM and > 79 µM (inactive), respectively.
In the case of `COc1ccc2[nH]c(=O)c(CN(Cc3cccnc3)S(=O)(=O)c3ccccc3F)cc2c1`, the values for the IC50 (in assay [1]; in the assay on Cytotoxicity) were 2.1 µM and 3.68 µM, respectively.
In the case of `Cc1ccc(S(=O)(=O)/N=C(\CCl)N2CCOCC2)cc1`, the values for the half-inhibitory concentration (IC50) (in assay [1]; with Cytotoxicity) were 2.38 µM and 9.62 µM, respectively.
Taken in the same sequence, the figures for `O=C1NC(c2cccc3ccccc23)Nc2ccc(Cl)cc21` (centres undefined) were 8.66 µM and > 79 µM (inactive).
For `CC(=O)Oc1ccc(N(C(C)=O)S(=O)(=O)c2cccs2)c2ccccc12`, the values for the half-maximal inhibitory concentration (IC50) (in assay [1]; with Cytotoxicity) were 6.45 µM and 11.7 µM, respectively.
